Data taken from ChEMBL document CHEMBL1128691, “Functionally selective M1 muscarinic agonists. 3. Side chains and azacycles contributing to functional muscarinic selectivity among pyrazinylazacycles” (J Med Chem, 1995).

Key:
[1] = target: T1, Muscarinic acetylcholine receptor M1 (Rattus norvegicus, UniProt P08482); assay: Binding activity against muscarinic acetylcholine receptor M1 in rat brain, using [3H]-Pz as the radioligand.; format: tissue-based
T1 sequence (P08482 whole entry): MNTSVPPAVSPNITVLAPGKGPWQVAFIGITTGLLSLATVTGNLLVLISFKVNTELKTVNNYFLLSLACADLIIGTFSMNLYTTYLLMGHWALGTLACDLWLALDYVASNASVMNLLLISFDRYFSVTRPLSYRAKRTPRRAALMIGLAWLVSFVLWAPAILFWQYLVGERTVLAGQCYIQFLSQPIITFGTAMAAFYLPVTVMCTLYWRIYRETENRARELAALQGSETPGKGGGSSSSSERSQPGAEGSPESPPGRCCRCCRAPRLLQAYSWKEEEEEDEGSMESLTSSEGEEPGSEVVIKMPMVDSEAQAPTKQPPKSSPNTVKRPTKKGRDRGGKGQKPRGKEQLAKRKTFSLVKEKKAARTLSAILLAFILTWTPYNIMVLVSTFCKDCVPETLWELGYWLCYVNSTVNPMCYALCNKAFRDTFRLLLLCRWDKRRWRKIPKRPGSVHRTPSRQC

A9 = assay: Stimulating PI (phosphoinositol) hydrolysis in A9L-m1 cells.; format: functional, Mus musculus
[2] = target: T1, Muscarinic acetylcholine receptor M1; assay: Binding activity against muscarinic acetylcholine receptor M1 in rat brain, using [3H]OXO-M as the radioligand.; format: tissue-based
Mus musculus [3] = assay: Effect on salivation in mice, after intraperitoneal administration of 10 mg/kg, activity expressed as a score using a scale of 0-2.; format: functional
Mus musculus [4] = assay: Minimum effective dose after ip administration, to stimulate salivation in mice; format: functional; details: read-out: MED

| Compound | IC50 [1] [nM] | Max (A9) [%] | IC50 [2] [nM] | Score (Mus musculus [3]) | minimal effective dose (Mus musculus [4]) [mg/kg] |
| --- | --- | --- | --- | --- | --- |
| CCOc1nccnc1C1CN2CCC1CC2 (stereo not given) | 38 | 1 | 23 | 0 |  |
| CCCCCCOc1nsnc1C1=CCCN(C)C1 [XANOMELINE] |  | 55 |  | 0 |  |
| CCCCCCSc1nccnc1C1CN2CCC1CC2 (stereo not given) | 2.2 | 16 | 2 | 0 |  |
| CCCCCCOc1nccnc1C1CN2CCC1CC2 (stereo not given) | 6 | 40 | 4.5 | 0 |  |
| Clc1cncc(C2CN3CCC2CC3)n1 (stereo not given) | 4.7 | 8 | 4.6 | 1 | 3 |
| CCCCCCOc1nccnc1[C@@H]1CN2CCC1C2 (stereo not given in full) | 58 | 31 | 46 | 0.6 |  |
| CCCCCCCOc1nccnc1C1CN2CCC1CC2 (stereo not given) | 13 | 35 | 10 | 0 |  |
| CCCCOc1nccnc1C1CN2CCC1CC2 (stereo not given) | 10 | 15 | 5 | 0 |  |
| CCCCCCOc1nccnc1[C@H]1CN2CCC1CC2 | 10.6 | 46 | 11.3 | 0 |  |
| CCCOc1nccnc1C1CN2CCC1CC2 (stereo not given) | 19 | 4 | 9 | 0 |  |
| C[N+](C)(C)CC#CCOC(=O)Nc1cccc(Cl)c1.[Cl-] |  | 52 |  |  |  |
| CCCCCSc1nccnc1C1CN2CCC1CC2 (stereo not given) | 1.1 | 7 | 0.7 | 0 |  |
| c1cnc(C2CN3CCC2CC3)cn1 (stereo not given) | 74 | 80 | 4 | 1.4 | 0.1 |
| CCCCCCOc1nccnc1C1=CCCCNC1 | 44 | 5 | 167 | 0 |  |
| Cc1nccnc1C1CN2CCC1CC2 (stereo not given) | 80 | 4 | 23 | 2 | 3 |
| CCCCCCOc1nccnc1[C@@H]1CN2CCCC1C2 (stereo not given in full) | 120 | 4 | 180 | 0 |  |
| CCCCCCOc1nccnc1[C@@H]1CN2CCC1CC2 | 3.7 | 33 | 2.5 | 0 |  |
| CCCCSc1nccnc1C1CN2CCC1CC2 (stereo not given) | 0.4 | 5 | 0.5 | 0 |  |
| COc1nccnc1C1CN2CCC1CC2 (stereo not given) | 111 | 1 | 72 | 0 |  |
| CCCCCCOc1nccnc1C1=CCCCN(C)C1 | 26 | 2 | 117 | 0 |  |
| Clc1nccnc1C1CN2CCC1CC2 (stereo not given) | 180 | 13 | 56 | 1.2 | 10 |
| CCCCCCOc1nccnc1[C@H]1CN2CCCC1C2 (stereo not given in full) | 2.5 | 12 | 4 | 0 |  |
| CCCCCOc1nccnc1C1CN2CCC1CC2 (stereo not given) | 7 | 32 | 6 | 0.2 |  |
| CCCCCCOc1nccnc1[C@H]1CN2CCC1C2 (stereo not given in full) | 7 | 40 | 5.6 | 1.6 | 1 |
| COC(=O)C1=CCCN(C)C1 [ARECOLINE] |  | 73 |  | 0 |  |
| CCCCCCOc1nccnc1C1=CCCN(C)C1 |  | 12 |  | 0 |  |
